Experimental data: ChEMBL document CHEMBL1158249, “Cytotoxic falcarinol oxylipins from Dendropanax arboreus” (J Nat Prod, 1996)
Activity calls are given as the source filed them. The rule behind the calls is not given here.

Legend:
[1] = Cytotoxicity against human NCI60 cells; assay type: functional
Mus musculus [2] = assay: Toxicity against human LOX cells xenografted athymic nude mouse assessed as median day of death at 3.0 mg/kg, ip administered daily for 5 days; assay type: organism-based; design: dose 3 mg/kg, route intraperitoneal; details: in vivo, 120 h
Mus musculus [3] = assay: Toxicity against human LOX cells xenografted athymic nude mouse assessed as median day of death at 0.88 mg/kg, ip administered daily for 5 days; assay type: organism-based; design: dose 0.88 mg/kg, route intraperitoneal; details: in vivo, 120 h
LOX [4] = assay: Antitumor activity against human LOX cells xenografted athymic nude mouse at 0.59 mg/kg, ip administered daily for 5 days; assay type: functional, organism-based; design: dose 0.59 mg/kg
LOX [5] = assay: Antitumor activity against human LOX cells xenografted athymic nude mouse at 2.0 mg/kg, ip administered daily for 5 days; assay type: functional, organism-based; design: dose 2 mg/kg
Mus musculus [6] = assay: Toxicity against human LOX cells xenografted athymic nude mouse assessed as median day of death at 6.0 mg/kg, ip administered daily for 5 days; assay type: organism-based; design: dose 6 mg/kg, route intraperitoneal; details: in vivo, 120 h
Mus musculus [7] = assay: Toxicity against human LOX cells xenografted athymic nude mouse assessed as median day of death at 0.59 mg/kg, ip administered daily for 5 days; assay type: organism-based; design: dose 0.59 mg/kg, route intraperitoneal; details: in vivo, 120 h
Mus musculus [8] = assay: Toxicity against human LOX cells xenografted athymic nude mouse assessed as median day of death at 2.0 mg/kg, ip administered daily for 5 days; assay type: organism-based; design: dose 2 mg/kg, route intraperitoneal; details: in vivo, 120 h
LOX [9] = assay: Antitumor activity against human LOX cells xenografted athymic nude mouse at 3.0 mg/kg, ip administered daily for 5 days; assay type: functional, organism-based; design: dose 3 mg/kg
Mus musculus [10] = assay: Toxicity against human LOX cells xenografted athymic nude mouse assessed as median day of death at 1.33 mg/kg, ip administered daily for 5 days; assay type: organism-based; design: dose 1.33 mg/kg, route intraperitoneal; details: in vivo, 120 h
LOX [11] = assay: Antitumor activity against human LOX cells xenografted athymic nude mouse at 0.88 mg/kg, ip administered daily for 5 days; assay type: functional, organism-based; design: dose 0.88 mg/kg
LOX [12] = assay: Antitumor activity against human LOX cells xenografted athymic nude mouse at 0.39 mg/kg, ip administered daily for 5 days; assay type: functional, organism-based; design: dose 0.39 mg/kg
[13] = Antitumor activity against human LOX cells xenografted athymic nude mouse assessed as increase in life span at 1.33 mg/kg, ip administered daily for 5 days; assay type: functional; details: route intraperitoneal
LOX [14] = assay: Antitumor activity against human LOX cells xenografted athymic nude mouse at 1.33 mg/kg, ip administered daily for 5 days; assay type: functional, organism-based; design: dose 1.33 mg/kg
LOX [15] = assay: Antitumor activity against human LOX cells xenografted athymic nude mouse at 6.0 mg/kg, ip administered daily for 5 days; assay type: functional, organism-based; design: dose 6 mg/kg
Mus musculus [16] = assay: Toxicity against human LOX cells xenografted athymic nude mouse assessed as median day of death at 0.39 mg/kg, ip administered daily for 5 days; assay type: organism-based; design: dose 0.39 mg/kg, route intraperitoneal; details: in vivo, 120 h
Mus musculus [17] = assay: Toxicity against human LOX cells xenografted athymic nude mouse assessed as median day of death at 0.26 mg/kg, ip administered daily for 5 days; assay type: organism-based; design: dose 0.26 mg/kg, route intraperitoneal; details: in vivo, 120 h
LOX [18] = assay: Antitumor activity against human LOX cells xenografted athymic nude mouse at 0.26 mg/kg, ip administered daily for 5 days; assay type: functional, organism-based; design: dose 0.26 mg/kg
[19] = Antitumor activity against human LOX cells xenografted athymic nude mouse assessed as increase in life span at 2.0 mg/kg, ip administered daily for 5 days; assay type: functional; details: route intraperitoneal
LOX [20] = assay: Antitumor activity against human LOX cells xenografted athymic nude mouse at 28.12 mg/kg, ip administered daily for 5 days; assay type: functional, organism-based; design: dose 28.12 mg/kg
Mus musculus [21] = assay: Toxicity against human LOX cells xenografted athymic nude mouse assessed as median day of death at 56.25 mg/kg, ip administered daily for 5 days; assay type: organism-based; design: dose 56.25 mg/kg, route intraperitoneal; details: in vivo, 120 h
LOX [22] = assay: Antitumor activity against human LOX cells xenografted athymic nude mouse at 14.06 mg/kg, ip administered daily for 5 days; assay type: functional, organism-based; design: dose 14.06 mg/kg
LOX [23] = assay: Antitumor activity against human LOX cells xenografted athymic nude mouse at 7.03 mg/kg, ip administered daily for 5 days; assay type: functional, organism-based; design: dose 7.03 mg/kg
LOX [24] = assay: Antitumor activity against human LOX cells xenografted athymic nude mouse at 3.51 mg/kg, ip administered daily for 5 days; assay type: functional, organism-based; design: dose 3.51 mg/kg
[25] = Antitumor activity against human LOX cells xenografted athymic nude mouse assessed as increase in life span at 0.59 mg/kg, ip administered daily for 5 days; assay type: functional; details: route intraperitoneal
[26] = Antitumor activity against human LOX cells xenografted athymic nude mouse assessed as increase in life span at 0.17 mg/kg, ip administered daily for 5 days; assay type: functional; details: route intraperitoneal
Mus musculus [27] = assay: Toxicity against human LOX cells xenografted athymic nude mouse assessed as median day of death at 112.5 mg/kg, ip administered daily for 5 days; assay type: organism-based; design: dose 112.5 mg/kg, route intraperitoneal; details: in vivo, 120 h
Mus musculus [28] = assay: Toxicity against human LOX cells xenografted athymic nude mouse assessed as median day of death at 14.06 mg/kg, ip administered daily for 5 days; assay type: organism-based; design: dose 14.06 mg/kg, route intraperitoneal; details: in vivo, 120 h
LOX [29] = assay: Antitumor activity against human LOX cells xenografted athymic nude mouse at 112.5 mg/kg, ip administered daily for 5 days; assay type: functional, organism-based; design: dose 112.5 mg/kg
LOX [30] = assay: Antitumor activity against human LOX cells xenografted athymic nude mouse at 225 mg/kg, ip administered daily for 5 days; assay type: functional, organism-based; design: dose 225 mg/kg
[31] = Antitumor activity against human LOX cells xenografted athymic nude mouse assessed as increase in life span at 1.76 mg/kg, ip administered daily for 5 days; assay type: functional; details: route intraperitoneal
[32] = Antitumor activity against human LOX cells xenografted athymic nude mouse assessed as increase in life span at 3.0 mg/kg, ip administered daily for 5 days; assay type: functional; details: route intraperitoneal
LOX [33] = assay: Antitumor activity against human LOX cells xenografted athymic nude mouse at 56.25 mg/kg, ip administered daily for 5 days; assay type: functional, organism-based; design: dose 56.25 mg/kg
Mus musculus [34] = assay: Toxicity against human LOX cells xenografted athymic nude mouse assessed as median day of death at 7.03 mg/kg, ip administered daily for 5 days; assay type: organism-based; design: dose 7.03 mg/kg, route intraperitoneal; details: in vivo, 120 h
LOX [35] = assay: Antitumor activity against human LOX cells xenografted athymic nude mouse at 0.17 mg/kg, ip administered daily for 5 days; assay type: functional, organism-based; design: dose 0.17 mg/kg
LOX [36] = assay: Antitumor activity against human LOX cells xenografted athymic nude mouse at 1.76 mg/kg, ip administered daily for 5 days; assay type: functional, organism-based; design: dose 1.76 mg/kg
Mus musculus [37] = assay: Toxicity against human LOX cells xenografted athymic nude mouse assessed as median day of death at 0.17 mg/kg, ip administered daily for 5 days; assay type: organism-based; design: dose 0.17 mg/kg, route intraperitoneal; details: in vivo, 120 h
[38] = Antitumor activity against human LOX cells xenografted athymic nude mouse assessed as increase in life span at 0.88 mg/kg, ip administered daily for 5 days; assay type: functional; details: route intraperitoneal
Mus musculus [39] = assay: Toxicity against human LOX cells xenografted athymic nude mouse assessed as median day of death at 225 mg/kg, ip administered daily for 5 days; assay type: organism-based; design: dose 225 mg/kg, route intraperitoneal; details: in vivo, 120 h
Mus musculus [40] = assay: Toxicity against human LOX cells xenografted athymic nude mouse assessed as median day of death at 1.76 mg/kg, ip administered daily for 5 days; assay type: organism-based; design: dose 1.76 mg/kg, route intraperitoneal; details: in vivo, 120 h
Mus musculus [41] = assay: Toxicity against human LOX cells xenografted athymic nude mouse assessed as median day of death at 28.12 mg/kg, ip administered daily for 5 days; assay type: organism-based; design: dose 28.12 mg/kg, route intraperitoneal; details: in vivo, 120 h
Mus musculus [42] = assay: Toxicity against human LOX cells xenografted athymic nude mouse assessed as median day of death at 3.51 mg/kg, ip administered daily for 5 days; assay type: organism-based; design: dose 3.51 mg/kg, route intraperitoneal; details: in vivo, 120 h
[43] = Antitumor activity against human LOX cells xenografted athymic nude mouse assessed as increase in life span at 0.26 mg/kg, ip administered daily for 5 days; assay type: functional; details: route intraperitoneal

## C=C[C@H](O)C#CC#C/C=C/C(O)CCCCCCC (stereo not given in full)
[1]
  GI50: 440 nM
  LC50: 4.7 µM
  TGI: 1400 nM

## C=CCCCCC/C=C\[C@H](O)C#CC#C[C@@H](O)C=C
Mus musculus [2]
  Activity: 14.5 days
Mus musculus [3]
  Activity: 14 days
LOX [4]
  Activity: inactive
LOX [5]
  Activity: inactive
Mus musculus [6]
  Activity: 15 days
Mus musculus [7]
  Activity: 15 days
Mus musculus [8]
  Activity: 14 days
LOX [9]
  Activity: inactive
Mus musculus [10]
  Activity: 15.5 days
LOX [11]
  Activity: inactive
LOX [12]
  Activity: inactive
[1]
  GI50: 2100 nM
  LC50: 10 µM
  TGI: 3000 nM
[13]
  Activity: 3%
LOX [14]
  Activity: inactive
LOX [15]
  Activity: inactive
Mus musculus [16]
  Activity: 14.5 days
Mus musculus [17]
  Activity: 15 days
LOX [18]
  Activity: inactive

## C=CCCCCCC(O)/C=C/C#CC#C[C@@H](O)C=C (stereo not given in full) [DENDROARBOREOL B]
[1]
  GI50: 500 nM
  LC50: 7.6 µM
  TGI: 1900 nM

## C=C[C@H](O)C#CC#CC/C=C\CCCCCCC [FALCARINOL]
Mus musculus [2]
  Activity: 20 days
Mus musculus [3]
  Activity: 22 days
[19]
  Activity: 7%
LOX [20]
  Activity: Active
LOX [4]
  Activity: inactive
LOX [5]
  Activity: inactive
Mus musculus [21]
  Activity: 3 days
LOX [22]
  Activity: Active
LOX [23]
  Activity: Active
LOX [24]
  Activity: Active
[25]
  Activity: 13%
Mus musculus [7]
  Activity: 22.5 days
[26]
  Activity: 5%
Mus musculus [27]
  Activity: 3 days
Mus musculus [28]
  Activity: 4.5 days
Mus musculus [8]
  Activity: 19.5 days
LOX [9]
  Activity: inactive
Mus musculus [10]
  Activity: 20 days
LOX [29]
  Activity: Active
LOX [30]
  Activity: Active
[31]
  Activity: 5%
[32]
  Activity: 13%
LOX [11]
  Activity: inactive
LOX [33]
  Activity: Active
LOX [12]
  Activity: inactive
[1]
  GI50: 220 nM
  LC50: 3.8 µM
  TGI: 760 nM
Mus musculus [34]
  Activity: 5.5 days
LOX [35]
  Activity: inactive
LOX [36]
  Activity: inactive
LOX [14]
  Activity: inactive
Mus musculus [37]
  Activity: 21 days
[38]
  Activity: 5%
Mus musculus [16]
  Activity: 19 days
Mus musculus [39]
  Activity: 2 days
Mus musculus [40]
  Activity: 22 days
Mus musculus [41]
  Activity: 4 days
Mus musculus [42]
  Activity: 6.5 days

## C=C[C@@H](O)C#CC#C[C@@H](O)/C=C\CCCCCCC [FALCARINDIOL]
[1]
  GI50: 660 nM
  TGI: 2200 nM

## C=CCCCCC/C=C\[C@H](O)C#CC#C[C@@H](O)CC [DENDROARBOREOL A]
[1]
  GI50: 4600 nM
  LC50: 25 µM
  TGI: 14000 nM

## C=CCCCCC/C=C\CC#CC#C[C@@H](O)C=C
Mus musculus [2]
  Activity: 18 days
Mus musculus [3]
  Activity: 15 days
[19]
  Activity: 27%
LOX [4]
  Activity: inactive
LOX [5]
  Activity: inactive
[25]
  Activity: 20%
[43]
  Activity: 20%
Mus musculus [7]
  Activity: 15 days
Mus musculus [8]
  Activity: 16 days
LOX [9]
  Activity: inactive
Mus musculus [10]
  Activity: 15 days
[32]
  Activity: 47%
LOX [11]
  Activity: inactive
LOX [12]
  Activity: inactive
[1]
  GI50: 400 nM
  LC50: 4.8 µM
  TGI: 1300 nM
LOX [35]
  Activity: inactive
[13]
  Activity: 20%
LOX [14]
  Activity: inactive
Mus musculus [37]
  Activity: 15 days
[38]
  Activity: 13%
Mus musculus [16]
  Activity: 15 days
Mus musculus [17]
  Activity: 18 days
LOX [18]
  Activity: inactive
